Results published in US20200407365A1, “INDOLE-2-CARBONYL COMPOUNDS AND THEIR USE FOR THE TREATMENT OF HEPATITIS B” (Novartis AG, priority 2018, published 2020).

System: HBV replication in HepG2.cl42 cells
Assay: Anti-HBV assay (HBV DNA by quantitative real time PCR in HepG2.cl42 cells)
Type: cell-based, HBV ayw strain
Details: Hepatitis B virus, 96 h, compound treatment four days, read-out: HBsAg EC50

| SMILES | EC50 [nM] |
| --- | --- |
| CC1(C)CCN(c2cnn3c2CN(C(=O)c2cc4ccccc4[nH]2)CC3)C1=O [Compound 1.1, 1-(5-(1H-indole-2-carbonyl)-4,5,6,7-tetrahydropyrazolo[1,5-a]pyrazin-3-yl)-3,3-dimethylpyrrolidin-2-one] | > 1000 |
| CC1(C)CC(=O)N(c2cnn3c2CN(C(=O)c2cc4ccccc4[nH]2)CC3)C1 [Compound 1.2] | 100 to 1000 |
| COC[C@@H]1CN(c2cnn3c2CN(C(=O)c2cc4ccccc4[nH]2)CC3)C(=O)CO1 [Compound 1.3] | 100 to 1000 |
| O=C(c1cc2ccccc2[nH]1)N1CCn2ncc(N3CCOCC3=O)c2C1 [Compound 1.4] | 100 to 1000 |
| CC1(C)CN(c2cnn3c2CN(C(=O)c2cc4ccccc4[nH]2)CC3)C(=O)CO1 [Compound 1.5] | 100 to 1000 |
| O=C(c1cc2ccccc2[nH]1)N1CCn2ncc(N3CCCCC3=O)c2C1 [Compound 1.6] | 100 to 1000 |
| CC1(C)CN(c2cnn3c2CN(C(=O)c2cc4ccccc4[nH]2)CC3)C(=O)O1 [Compound 2.1, 3-(5-(1H-indole-2-carbonyl)-4,5,6,7-tetrahydropyrazolo[1,5-a]pyrazin-3-yl)-5,5-dimethyloxazolidin-2-one] | < 100 |
| Cc1c(C(=O)N2CCn3ncc(N4CC(C)(C)OC4=O)c3C2)[nH]c2ccccc12 [Compound 2.2] | > 1000 |
| CCc1c(C(=O)N2CCn3ncc(N4CC(C)(C)OC4=O)c3C2)[nH]c2ccccc12 [Compound 2.3] | > 1000 |
| CC1(C)CN(c2cnn3c2CN(C(=O)c2[nH]c4ccccc4c2C#N)CC3)C(=O)O1 [Compound 2.4] | > 1000 |
| CC1(C)CN(c2cnn3c2CN(C(=O)c2[nH]c4ccccc4c2Cl)CC3)C(=O)O1 [Compound 2.5] | > 1000 |
| CC1(C)CN(c2cnn3c2CN(C(=O)c2cc4cc(F)ccc4[nH]2)CC3)C(=O)O1 [Compound 2.6] | < 100 |
| CC1(C)CN(c2cnn3c2CN(C(=O)c2cc4ccc(F)cc4[nH]2)CC3)C(=O)O1 [Compound 2.7] | < 100 |
| CC1(C)CN(c2cnn3c2CN(C(=O)c2cc4ccc(Cl)cc4[nH]2)CC3)C(=O)O1 [Compound 2.8] | < 100 |
| CC1(C)CN(c2cnn3c2CN(C(=O)c2cc4cccc(Cl)c4[nH]2)CC3)C(=O)O1 [Compound 2.9] | 100 to 1000 |
| COc1ccc2[nH]c(C(=O)N3CCn4ncc(N5CC(C)(C)OC5=O)c4C3)cc2c1 [Compound 2.10] | > 1000 |
| CC1(C)CN(c2cnn3c2CN(C(=O)c2cc4ccc(C#N)cc4[nH]2)CC3)C(=O)O1 [Compound 2.11] | 100 to 1000 |

| SMILES | EC50 [nM] |
| --- | --- |
| Cc1ccc2cc(C(=O)N3CCn4ncc(N5CC(C)(C)OC5=O)c4C3)[nH]c2c1 [Compound 2.12] | < 100 |
| COc1ccc2cc(C(=O)N3CCn4ncc(N5CC(C)(C)OC5=O)c4C3)[nH]c2c1 [Compound 2.13] | 100 to 1000 |
| Cc1cccc2[nH]c(C(=O)N3CCn4ncc(N5CC(C)(C)OC5=O)c4C3)cc12 [Compound 2.14] | < 100 |
| Cc1ccc2[nH]c(C(=O)N3CCn4ncc(N5CC(C)(C)OC5=O)c4C3)cc2c1 [Compound 2.15] | 100 to 1000 |
| CC1(C)CN(c2cnn3c2CN(C(=O)c2cc4cc(Cl)ccc4[nH]2)CC3)C(=O)O1 [Compound 2.16] | 100 to 1000 |
| CC1(C)CN(c2cnn3c2CN(C(=O)c2cc4cccc(F)c4[nH]2)CC3)C(=O)O1 [Compound 2.17] | 100 to 1000 |
| Cc1cccc2cc(C(=O)N3CCn4ncc(N5CC(C)(C)OC5=O)c4C3)[nH]c12 [Compound 2.18] | 100 to 1000 |
| COc1cccc2cc(C(=O)N3CCn4ncc(N5CC(C)(C)OC5=O)c4C3)[nH]c12 [Compound 2.19] | > 1000 |
| CC1(C)CN(c2cnn3c2CN(C(=O)c2cc4c(Cl)cccc4[nH]2)CC3)C(=O)O1 [Compound 2.20] | < 100 |
| CC1(C)CN(c2cnn3c2CN(C(=O)c2cc4cnc(Cl)cc4[nH]2)CC3)C(=O)O1 [Compound 2.21] | 100 to 1000 |
| CC1(C)CN(c2cnn3c2CN(C(=O)c2cc4c(F)cccc4[nH]2)CC3)C(=O)O1 [Compound 2.22] | < 100 |
| C[C@H]1Cn2ncc(N3CC(C)(C)OC3=O)c2CN1C(=O)c1cc2ccccc2[nH]1 [Compound 2.23] | > 1000 |
| COC[C@H]1CN(c2cnn3c2CN(C(=O)c2cc4ccccc4[nH]2)CC3)C(=O)O1 [Compound 3.1, (R)-3-(5-(1H-indole-2-carbonyl)-4,5,6,7-tetrahydropyrazolo[1,5-a]pyrazin-3-yl)-5-(methoxymethyl)oxazolidin-2-one] | < 100 |
| COC[C@@H]1CN(c2cnn3c2CN(C(=O)c2cc4ccccc4[nH]2)CC3)C(=O)O1 [Compound 3.2] | 100 to 1000 |
| CC1(C)COC(=O)N(c2cnn3c2CN(C(=O)c2cc4ccccc4[nH]2)CC3)C1 [Compound 3.3] | 100 to 1000 |
| O=C(c1cc2ccccc2[nH]1)N1CCc2noc(N3CCCCC3=O)c2C1 [Compound 4.1, 1-(5-(1H-indole-2-carbonyl)-4,5,6,7-tetrahydroisoxazolo[4,3-c]pyridin-3-yl)piperidin-2-one] | < 100 |
